Experimental data as given in PubChem BioAssay AID220 (DTP/NCI, 2004).
Results filed as inconclusive are left out.

System: CD8F1 mice, subcutaneous mammary adenocarcinoma, T/C%
Assay: NCI In Vivo Anticancer Drug Screen. Data for tumor model Mammary Adenocarcinoma CD8F1 (subcutaneous) in CD8F1
Details: higher = larger tumour
How it was run: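 Compound-treated versus vehicle-treated mice with transplantable tumors; survival or tumor size compared as T/C.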

[1] = endpoint: median tumor weight change, dose: 125.0 mg/kg/injection, schedule: Q01DX001 (ip), vehicle: saline with Tween-80
[2] = endpoint: median tumor weight change, dose: 500.0 mg/kg/injection, schedule: Q01DX001 (ip), vehicle: saline with Tween-80

In the case of `C[n+]1ccc2cc(N)c3c4ccccc4sc3c2c1`, the T/C (endpoint: median tumor weight (est.), dose: 1.56 mg/kg/injection, schedule: Q07DX004 (ip), vehicle: saline with Tween-80) is reported as 83 % of control, the T/C (endpoint: median tumor weight (est.), dose: 3.12 mg/kg/injection, schedule: Q07DX004 (ip), vehicle: saline with Tween-80) is reported as 121 % of control and the T/C (endpoint: median tumor weight (est.), dose: 6.25 mg/kg/injection, schedule: Q07DX004 (ip), vehicle: saline with Tween-80) is reported as 65 % of control. The T/C (endpoint: median tumor weight (est.), dose: 12.5 mg/kg/injection, schedule: Q07DX004 (ip), vehicle: saline with Tween-80) was 105 % of control and the T/C (endpoint: median tumor weight (est.), dose: 25.0 mg/kg/injection, schedule: Q07DX004 (ip), vehicle: saline with Tween-80) was 110 % of control.
For `CO[C@H](C(=O)[C@@H](O)[C@@H](C)O)[C@@H]1Cc2cc3cc(OC4CC(OC5CC(O)C(O)C(C)O5)C(O)C(C)O4)c(C)c(O)c3c(O)c2C(=O)[C@H]1OC1CC(OC2CC(OC3CC(C)(O)C(O)C(C)O3)C(O)C(C)O2)C(O)C(C)O1` (stereo partly specified), the T/C (endpoint: median tumor weight (est.), dose: 0.25 mg/kg/injection, schedule: Q07DX006 (ip), vehicle: saline) was 76 % of control, the T/C (endpoint: median tumor weight (est.), dose: 0.5 mg/kg/injection, schedule: Q07DX006 (ip), vehicle: saline) was 104 % of control and the T/C (endpoint: median tumor weight (est.), dose: 1.0 mg/kg/injection, schedule: Q07DX006 (ip), vehicle: saline) was 78 % of control.
`CC[C@@]1(O)C[C@H](OC2CC(N(C)C)C(OC3CC(O)C(OC4CCC(=O)C(C)O4)C(C)O3)C(C)O2)c2c(cc3c(c2O)C(=O)c2c(O)cccc2C3=O)[C@H]1C(=O)OC` (stereo partly specified) was tested, and the T/C (endpoint: mean tumor weight, dose: 0.75 mg/kg/injection, schedule: Q01DX009 (ip), vehicle: saline) was 108 % of control, the T/C (endpoint: mean tumor weight, dose: 1.5 mg/kg/injection, schedule: Q01DX009 (ip), vehicle: saline) was 75 % of control and the T/C (endpoint: mean tumor weight, dose: 3.0 mg/kg/injection, schedule: Q01DX009 (ip), vehicle: saline) was 35 % of control. The T/C (endpoint: mean tumor weight, dose: 6.0 mg/kg/injection, schedule: Q01DX009 (ip), vehicle: saline) was 5 % of control, the T/C (endpoint: median tumor weight (est.), dose: 2.97 mg/kg/injection, schedule: Q07DX005 (ip), vehicle: water) was 122 % of control and the T/C (endpoint: median tumor weight (est.), dose: 4.45 mg/kg/injection, schedule: Q07DX005 (ip), vehicle: water) was 87 % of control. For the same compound, the T/C (endpoint: median tumor weight (est.), dose: 6.67 mg/kg/injection, schedule: Q07DX005 (ip), vehicle: water) was 92 % of control, the T/C (endpoint: median tumor weight (est.), dose: 10.0 mg/kg/injection, schedule: Q07DX005 (ip), vehicle: water) was 61 % of control and the T/C (endpoint: median tumor weight (est.), dose: 15.0 mg/kg/injection, schedule: Q07DX005 (ip), vehicle: water) was 11 % of control.
`CCn1cnc2c(=S)nc[nH]c21` was tested, and the T/C [1] was 66 % of control, the T/C (endpoint: median tumor weight change, dose: 250.0 mg/kg/injection, schedule: Q01DX001 (ip), vehicle: saline with Tween-80) was 50 % of control and the T/C [2] was 64 % of control. For the same compound, the T/C (endpoint: median tumor weight change, dose: 1000.0 mg/kg/injection, schedule: Q01DX001 (ip), vehicle: saline with Tween-80) was 39 % of control.
In the case of `Cn1cnc([N+](=O)[O-])c1SCC(=O)O`, the T/C (endpoint: median tumor weight (est.), dose: 100.0 mg/kg/injection, schedule: Q07DX005 (ip), vehicle: Klucel (hydroxypropylcellulose) (HPC)) is reported as 100 % of control, the T/C (endpoint: median tumor weight (est.), dose: 200.0 mg/kg/injection, schedule: Q07DX005 (ip), vehicle: Klucel (hydroxypropylcellulose) (HPC)) is reported as 107 % of control and the T/C (endpoint: median tumor weight (est.), dose: 400.0 mg/kg/injection, schedule: Q07DX005 (ip), vehicle: Klucel (hydroxypropylcellulose) (HPC)) is reported as 166 % of control. For the same compound, the T/C (endpoint: median tumor weight (est.), dose: 800.0 mg/kg/injection, schedule: Q07DX005 (ip), vehicle: Klucel (hydroxypropylcellulose) (HPC)) was 65 % of control, the T/C (endpoint: median tumor weight change, dose: 62.5 mg/kg/injection, schedule: Q01DX001 (ip), vehicle: Klucel (hydroxypropylcellulose) (HPC)) was 75 % of control and the T/C (endpoint: median tumor weight change, dose: 125.0 mg/kg/injection, schedule: Q01DX001 (ip), vehicle: Klucel (hydroxypropylcellulose) (HPC)) was 72 % of control. The T/C (endpoint: median tumor weight change, dose: 250.0 mg/kg/injection, schedule: Q01DX001 (ip), vehicle: Klucel (hydroxypropylcellulose) (HPC)) was 76 % of control, the T/C (endpoint: median tumor weight change, dose: 500.0 mg/kg/injection, schedule: Q01DX001 (ip), vehicle: Klucel (hydroxypropylcellulose) (HPC)) was 74 % of control and the T/C (endpoint: median tumor weight change, dose: 1000.0 mg/kg/injection, schedule: Q01DX001 (ip), vehicle: Klucel (hydroxypropylcellulose) (HPC)) was 60 % of control. The T/C (endpoint: median tumor weight change, dose: 2000.0 mg/kg/injection, schedule: Q01DX001 (ip), vehicle: Klucel (hydroxypropylcellulose) (HPC)) was 68 % of control.
In the case of `COC1CC(C)C(OC)C2=CC(=O)C=C(NC(=O)/C(C)=C/C=C\C(C)C(OC(N)=O)/C(C)=C\C(C)C1OC)C2=O` (stereo unspecified), the T/C (endpoint: median tumor weight change, dose: 6.25 mg/kg/injection, schedule: Q01DX001 (ip), vehicle: saline + alcohol) is reported as 152 % of control, the T/C (endpoint: median tumor weight change, dose: 12.5 mg/kg/injection, schedule: Q01DX001 (ip), vehicle: saline + alcohol) is reported as 91 % of control and the T/C (endpoint: median tumor weight change, dose: 25.0 mg/kg/injection, schedule: Q01DX001 (ip), vehicle: saline + alcohol) is reported as 72 % of control.
For `C=CS(=O)(=O)c1ccccc1`, the T/C (endpoint: mean tumor weight, dose: 25.0 mg/kg/injection, schedule: Q07DX005 (ip), vehicle: saline with Tween-80) was 110 % of control, the T/C (endpoint: mean tumor weight, dose: 50.0 mg/kg/injection, schedule: Q07DX005 (ip), vehicle: saline with Tween-80) was 117 % of control and the T/C (endpoint: mean tumor weight, dose: 100.0 mg/kg/injection, schedule: Q07DX005 (ip), vehicle: saline with Tween-80) was 114 % of control. The T/C (endpoint: mean tumor weight, dose: 200.0 mg/kg/injection, schedule: Q07DX005 (ip), vehicle: saline with Tween-80) was 154 % of control.
With `O=Cc1ccc(O)c(O)c1` the T/C (endpoint: median tumor weight (est.), dose: 100.0 mg/kg/injection, schedule: Q07DX005 (ip), vehicle: suspension in saline) was 160 % of control.
`O=C1NC(=O)NC(C(=O)O)N1` was tested, and the T/C (endpoint: median tumor weight change, dose: 12.0 mg/kg/injection, schedule: Q01DX001 (ip), vehicle: DMSO) was 79 % of control, the T/C (endpoint: median tumor weight change, dose: 25.0 mg/kg/injection, schedule: Q01DX001 (ip), vehicle: DMSO) was 104 % of control and the T/C (endpoint: median tumor weight change, dose: 50.0 mg/kg/injection, schedule: Q01DX001 (ip), vehicle: DMSO) was 79 % of control. For the same compound, the T/C (endpoint: median tumor weight change, dose: 75.0 mg/kg/injection, schedule: Q01DX001 (ip), vehicle: DMSO) was 83 % of control, the T/C (endpoint: median tumor weight change, dose: 100.0 mg/kg/injection, schedule: Q01DX001 (ip), vehicle: DMSO) was 73 % of control and the T/C (endpoint: median tumor weight change, dose: 150.0 mg/kg/injection, schedule: Q01DX001 (ip), vehicle: DMSO) was 96 % of control. The T/C (endpoint: median tumor weight change, dose: 200.0 mg/kg/injection, schedule: Q01DX001 (ip), vehicle: DMSO) was 83 % of control, the T/C (endpoint: median tumor weight change, dose: 300.0 mg/kg/injection, schedule: Q01DX001 (ip), vehicle: DMSO) was 86 % of control and the T/C (endpoint: median tumor weight change, dose: 400.0 mg/kg/injection, schedule: Q01DX001 (ip), vehicle: DMSO) was 56 % of control. The T/C (endpoint: median tumor weight change, dose: 600.0 mg/kg/injection, schedule: Q01DX001 (ip), vehicle: DMSO) was 80 % of control.
`CN(CCN(C)C(=O)CCOS(C)(=O)=O)C(=O)CCOS(C)(=O)=O` was tested, and the T/C (endpoint: median tumor weight change, dose: 62.0 mg/kg/injection, schedule: Q01DX001 (ip), vehicle: saline) was 67 % of control, the T/C (endpoint: median tumor weight change, dose: 62.5 mg/kg/injection, schedule: Q01DX001 (ip), vehicle: saline with Tween-80) was 43 % of control and the T/C (endpoint: median tumor weight change, dose: 62.5 mg/kg/injection, schedule: Q01DX001 (ip), vehicle: suspension in saline) was 39 % of control. For the same compound, the T/C [1] was 15 % of control, the T/C (endpoint: median tumor weight change, dose: 125.0 mg/kg/injection, schedule: Q01DX001 (ip), vehicle: saline) was 3 % of control and the T/C (endpoint: median tumor weight change, dose: 125.0 mg/kg/injection, schedule: Q01DX001 (ip), vehicle: suspension in saline) was 10 % of control. The T/C (endpoint: median tumor weight change, dose: 250.0 mg/kg/injection, schedule: Q01DX001 (ip), vehicle: saline) was 51 % of control and the T/C [2] was -17 % of control.
In the case of `COCC(O)Cn1ccnc1[N+](=O)[O-]` (stereo unspecified), the T/C (endpoint: median tumor weight (est.), dose: 8.0 mg/kg/injection, schedule: Q07DX005 (ip), vehicle: Klucel (hydroxypropylcellulose) (HPC)) is reported as 101 % of control, the T/C (endpoint: median tumor weight (est.), dose: 8.0 mg/kg/injection, schedule: Q07DX005 (ip), vehicle: saline) is reported as 183 % of control and the T/C (endpoint: median tumor weight (est.), dose: 16.0 mg/kg/injection, schedule: Q07DX005 (ip), vehicle: Klucel (hydroxypropylcellulose) (HPC)) is reported as 124 % of control. The T/C (endpoint: median tumor weight (est.), dose: 16.0 mg/kg/injection, schedule: Q07DX005 (ip), vehicle: saline) was 256 % of control, the T/C (endpoint: median tumor weight (est.), dose: 32.0 mg/kg/injection, schedule: Q07DX005 (ip), vehicle: saline) was 256 % of control and the T/C (endpoint: median tumor weight (est.), dose: 64.0 mg/kg/injection, schedule: Q07DX005 (ip), vehicle: Klucel (hydroxypropylcellulose) (HPC)) was 74 % of control. For the same compound, the T/C (endpoint: median tumor weight (est.), dose: 64.0 mg/kg/injection, schedule: Q07DX005 (ip), vehicle: saline) was 249 % of control, the T/C (endpoint: median tumor weight (est.), dose: 128.0 mg/kg/injection, schedule: Q07DX005 (ip), vehicle: Klucel (hydroxypropylcellulose) (HPC)) was 88 % of control and the T/C (endpoint: median tumor weight (est.), dose: 128.0 mg/kg/injection, schedule: Q07DX005 (ip), vehicle: saline) was 488 % of control. For the same compound, the T/C (endpoint: median tumor weight (est.), dose: 256.0 mg/kg/injection, schedule: Q07DX005 (ip), vehicle: Klucel (hydroxypropylcellulose) (HPC)) was 121 % of control and the T/C (endpoint: median tumor weight (est.), dose: 256.0 mg/kg/injection, schedule: Q07DX005 (ip), vehicle: saline) was 108 % of control.
In the case of `CNC(=O)c1cccc2c(Nc3ccc(NS(C)(=O)=O)cc3OC)c3cccc(C)c3nc12`, the T/C (endpoint: median tumor weight change, dose: 60.0 mg/kg/injection, schedule: Q01DX001 (ip), vehicle: water) is reported as 6 % of control, the T/C (endpoint: median tumor weight change, dose: 62.5 mg/kg/injection, schedule: Q01DX001 (ip), vehicle: water) is reported as -63 % of control and the T/C (endpoint: median tumor weight change, dose: 120.0 mg/kg/injection, schedule: Q01DX001 (ip), vehicle: other) is reported as -68 % of control.
